ChEMBL document CHEMBL3865835, “α-Glucosidase and α-Amylase Inhibitors from Arcytophyllum thymifolium” (J Nat Prod, 2016)
Calls of active or inactive are those of the source. The calls are words filed in the database; no cut-off is given here.

What was measured:
Saccharomyces cerevisiae [1] = test: (§1) Inhibition of Saccharomyces cerevisiae alpha-glucosidase using 4-nitrophenyl alpha-D-glucopyranoside as substrate after 10 mins by UV-Vis spectrophotometric analysis
[2] = target: T1, Pancreatic alpha-amylase (Sus scrofa) (UniProt P00690); test: (§2) Inhibition of hog pancreas alpha-amylase using starch as substrate preincubated for 10 mins followed by substrate addition measured after 10 mins by dinitrosalicylic acid color reagent-based UV-Vis spectrophotometric analysis
T1 sequence (whole entry): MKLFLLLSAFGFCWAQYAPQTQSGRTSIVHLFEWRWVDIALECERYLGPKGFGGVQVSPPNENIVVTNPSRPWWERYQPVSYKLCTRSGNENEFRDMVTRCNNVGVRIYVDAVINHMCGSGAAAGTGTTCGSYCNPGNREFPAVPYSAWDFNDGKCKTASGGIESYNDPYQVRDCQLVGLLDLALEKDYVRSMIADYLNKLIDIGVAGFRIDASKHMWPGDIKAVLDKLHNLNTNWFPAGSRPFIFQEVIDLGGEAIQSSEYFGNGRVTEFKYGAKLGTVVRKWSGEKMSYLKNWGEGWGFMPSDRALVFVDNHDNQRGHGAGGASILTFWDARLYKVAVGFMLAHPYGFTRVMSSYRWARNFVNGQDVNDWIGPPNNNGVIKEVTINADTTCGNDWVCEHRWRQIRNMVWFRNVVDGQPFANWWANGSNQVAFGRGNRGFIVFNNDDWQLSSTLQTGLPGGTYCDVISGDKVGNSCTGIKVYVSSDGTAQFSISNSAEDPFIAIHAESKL

[3] = as §1
Pancreatic alpha-amylase = target: T2, Pancreatic alpha-amylase (Sus scrofa, UniProt P00690); test: as §2
T2 sequence (P00690 whole entry): T1 sequence (whole entry)

Saccharomyces cerevisiae [4] = test: Potency index, ratio of acarbose IC50 to compound IC50 for Saccharomyces cerevisiae alpha-glucosidase

| Compound | inhibition (Saccharomyces cerevisiae [1]) | inhibition [2] | further results |
| --- | --- | --- | --- |
| C=C(C)C(O)Cc1c(O)c(OC)cc2ccc(=O)oc12 (configuration not stated) | Active | Active | – |
| O=c1c(O[C@@H]2O[C@H](CO)[C@H](O)[C@H](O)[C@H]2O[C@@H]2O[C@H](CO)[C@@H](O)[C@H](O)[C@H]2O)c(-c2ccc(O)cc2)oc2cc(O)cc(O)c12 | – | Active | – |
| COc1cc2ccc(=O)oc2c2c1O[C@](C)(CO)C(O)=C2 | Active | Active | – |
| O=C(O)C1=CO[C@@H](O[C@@H]2O[C@H](CO)[C@@H](O)[C@H](O)[C@H]2O)[C@@H]2C(CO)=C[C@@H](O)[C@H]12 | – | Active | – |
| CC(=O)OCC1=C[C@@H]2OC(=O)C3=CO[C@@H](O[C@@H]4O[C@H](CO)[C@@H](O)[C@H](O)[C@H]4O)[C@H]1[C@@H]32 | – | Active | – |
| C[C@]1(CO)Oc2c(O)cc3ccc(=O)oc3c2C=C1O | – | Active | – |
| O=C(/C=C/c1ccc(O)c(O)c1)O[C@@H]1C[C@](O)(C(=O)O)C[C@@H](O)[C@H]1O | – | Active | – |
| C[C@H]1O[C@H](O[C@H]2[C@H](O)[C@@H](O)[C@@H](O[C@H]3[C@H](O)[C@@H](O)C(O)O[C@@H]3CO)O[C@@H]2CO)[C@H](O)[C@@H](O)[C@@H]1N[C@H]1C=C(CO)[C@@H](O)[C@H](O)[C@H]1O (some centres not stated) [ACARBOSE] | – | – | IC50 [3]: 403 µM |
| C=C(C)[C@H]1Cc2c(c(O)cc3ccc(=O)oc23)O1 | Active | Active | – |
| CC(=O)OCC1=C[C@H](O)[C@@H]2C(C(=O)O)=CO[C@@H](O[C@@H]3O[C@H](CO)[C@@H](O)[C@H](O)[C@H]3O)[C@H]12 | – | – | IC50 (Pancreatic alpha-amylase): 69.4 µM |
| CC(C)=CCOc1cc(O)c2c(c1)O[C@H](c1ccc(O)c(O)c1)CC2=O | – | – | IC50 [3]: 28.1 µM; Ratio IC50 (Saccharomyces cerevisiae [4]): 10 |
| COc1cc(O)c2c(=O)c(O)c(-c3ccc(O)c(O)c3)oc2c1 [RHAMNETIN] | – | – | IC50 (Pancreatic alpha-amylase): 73.9 µM |
| COc1cc2ccc(=O)oc2c(O)c1O | Active | – | – |
